Experimental data from the NIST ThermoML archive (doi:10.1016/j.fluid.2011.08.011).
Where “and” joins values, the source holds several entries; their conditions need not be identical. Identical values can stand only once. ± gives the expanded uncertainty stated by the source.

How the values were obtained:
[1] = Molar enthalpy of transition or fusion; conditions: Crystal; DSC
[2] = Liquid, Closed cell (Static) method
[3] = molar heat capacity at constant pressure; conditions: 101.33 kPa, Liquid, Small sample (50 mg) DSC
[4] = Solid-liquid equilibrium temperature; conditions: 101.3 kPa; Crystal; DTA

CC(C)(C)[O-].CC(C)(C)[O-].CC(C)(C)[O-].CC(C)(C)[O-].[Hf+4] [hafnium(IV) 2-methylpropan-2-olate]
Conditions | Molar enthalpy of transition or fusion [kcal/mol] | Solid-liquid equilibrium temperature
[1] | 7.72 ± 0.645 | –
[4] | – | 271.9 ± 0.4 K and 271.8 ± 0.4 K and 271.7 ± 0.4 K

Conditions | molar heat capacity at constant pressure | vapor or sublimation pressure
[2], 280.65 K | – | 0.00169 ± 0.00012 kPa and 0.00172 ± 0.00012 kPa and 0.00174 ± 0.00012 kPa
[2], 283.15 K | – | 0.00214 ± 0.00013 kPa and 0.00217 ± 0.00013 kPa and 0.00219 ± 0.00013 kPa
[2], 285.65 K | – | 0.00279 ± 0.00015 kPa and 0.00282 ± 0.00015 kPa and 0.00284 ± 0.00015 kPa
[2], 288.15 K | – | 0.00362 ± 0.00017 kPa and 0.00364 ± 0.00017 kPa and 0.00361 ± 0.00017 kPa
[2], 290.65 K | – | 0.00443 ± 0.0002 kPa and 0.00442 ± 0.0002 kPa and 0.00444 ± 0.0002 kPa
[2], 293.15 K | – | 0.00563 ± 0.00024 kPa and 0.00565 ± 0.00024 kPa and 0.00564 ± 0.00024 kPa
[2], 295.65 K | – | 0.00722 ± 0.0003 kPa and 0.0072 ± 0.0003 kPa
[2], 298.15 K | – | 0.00874 ± 0.00036 kPa and 0.00873 ± 0.00036 kPa
[2], 300.65 K | – | 0.01111 ± 0.00045 kPa and 0.01107 ± 0.00045 kPa and 0.01104 ± 0.00044 kPa
[2], 303.15 K | – | 0.01348 ± 0.00052 kPa and 0.01346 ± 0.00052 kPa
[2], 305.67 K | – | 0.01669 ± 0.00057 kPa and 0.01664 ± 0.00057 kPa and 0.0166 ± 0.00057 kPa
[2], 308.17 K | – | 0.02071 ± 0.00063 kPa and 0.02061 ± 0.00063 kPa and 0.02059 ± 0.00063 kPa
[3], 293.83 K | 596.3 ± 15 J/K/mol and 598.5 ± 15 J/K/mol | –
[3], 298.94 K | 598.9 ± 15 J/K/mol and 598.2 ± 15 J/K/mol | –
[3], 304.04 K | 601.3 ± 15 J/K/mol and 601.8 ± 15 J/K/mol | –
[3], 309.15 K | 604.8 ± 15 J/K/mol and 600.7 ± 15 J/K/mol | –
[3], 314.25 K | 604.8 ± 15 J/K/mol and 602.9 ± 15 J/K/mol | –
[3], 319.35 K | 612.6 ± 15 J/K/mol and 614.6 ± 15 J/K/mol | –
[3], 324.46 K | 614.2 ± 15 J/K/mol and 613.8 ± 15 J/K/mol | –
[3], 329.56 K | 616.6 ± 15 J/K/mol and 621.7 ± 15 J/K/mol | –
[3], 334.66 K | 626.3 ± 15 J/K/mol and 625.9 ± 15 J/K/mol | –
[3], 339.77 K | 631.5 ± 16 J/K/mol and 628.5 ± 15 J/K/mol | –
[3], 344.88 K | 635.3 ± 16 J/K/mol and 638.1 ± 16 J/K/mol | –
[3], 349.98 K | 635.5 ± 16 J/K/mol and 635.9 ± 16 J/K/mol | –
